Experimental findings from patent US9598393B2, “Structural variants of mycolactones for use in modulating inflammation, immunity and pain” (priority 2011, dated 2017) are described below.

Where two headings read alike, the source gives them in different places.

The subject of data set [1] is IL-2 production by Jurkat T cells. Description: Immunosuppressive activity: activation-induced IL-2 production, ELISA. Type of data set: cell-based, human. To be noted: for Cytokine production (M.A.: mean absorbance) (C) % relative to control / IC50: Jurkat T cells; for Cytokine production (M.A.: mean absorbance) (C) % relative to control: PMA + calcium ionophore, IL-2 ELISA; for IC50: IL-2, % inhibition relative to control, read-out: Cytokine production (C): IC50 value (concentration at which the compound induces 50% of mycolactone maximal activity); for Cytokine production (C): corresponding % of mycolactone activity (in brackets): relative to mycolactone (100%). The protocol:
(C) The immunosuppressive activity of mycolactone and variants was measured on Jurkat T cells (ATCC®; TIB-152™ clone E6-1), as models of human T lymphocytes. Cells were inoculated in 96-well plates (5×10^5 cells/well in RPMI 1640 medium supplemented with 10% fetal calf serum and 2 mM L-Glutamine) then incubated with serial dilutions of the various compounds for 4 h, and stimulated for 20 h with 50 ng/ml phorbol-12-myristate-13-acetate (PMA) and 1 μg/ml calcium ionophore. The production of IL-2 was then assessed in culture supernatants by ELISA.
A general note: In an ELISA, binding on a coated surface is turned into a signal by an enzyme label.

For another data set, the system named is HeLa cell. Put plainly: Cytotoxicity by Trypan Blue dye exclusion (cell viability). Type of data set: cell-based, human. The protocol: (B) HeLa cell death being negligible in the concentration and time frame conditions used in (A), the cytotoxicity of 16 μM mycolactone and variants was evaluated after 48 h of incubation by cell exclusion of the Trypan Blue dye. Here, one part of Trypan blue (0.4% in phosphate-buffered saline PBS) was mixed with one part cell suspension (recovered from cell culture wells by trypsin treatment). The mixture was incubated for 3 min at room temperature and unstained (viable) and stained (nonviable) cells counted separately with a hemacytometer.

Data set [2] relates to epithelial HeLa cell line. Put plainly: Cytopathic activity, MTT assay (effect on global cell metabolic activity). Type of data set: cell-based, human. The following applies: for Metabolic activity (MA: mean absorbance) (A) % relative to control / IC50: HeLa cells, 48 h, MTT; for IC50: % inhibition relative to control, read-out: Metabolic activity (A): IC50 value (concentration at which the compound induces 50% of mycolactone maximal activity); for Metabolic activity (A): corresponding % of mycolactone activity (in brackets): relative to mycolactone (100%). The protocol:
(A) The cytopathic activity of mycolactone and variants was assessed in a [3-(4,5-Dimethylthiazol-2-yl)-2,5-Diphenyltetrazolium Bromide] (MTT) assay, using the epithelial HeLa cell line (ATCC®; CCL-2) as a model. Briefly, HeLa cells were plated in 96-well plates (10^4 cells/well) in Dulbecco's Modified Eagle culture medium supplemented with 10% fetal calf serum and 2 mM L-Glutamine. After 16 h, mycolactone or variants dilutions (final concentration 0.4-8 μM) were added to the wells, and incubated with the cells for 48 h, prior to the addition of MTT at 50 μg/ml. After 4 h, culture supernatants were removed and the formed formazan crystals dissolved in dimethyl sulfoxide (DMSO) for absorbance measurement.
On the technique in general: Damage to the host cells serves as the signal in cytopathic effect assays.

For data set [3], the system named is CD62-L receptor expression by human peripheral blood cells (PBLs). Description: T cell homing: expression of CD62-L receptor, flow cytometry. The following applies: for CD62-L expression (MFI: mean fluorescence intensity) (D) % relative to control / IC50: human PBLs, 72 h; for IC50: % inhibition relative to control, read-out: CD62-L expression (D): IC50 value (concentration at which the compound induces 50% of mycolactone maximal activity); for CD62-L expression (D): corresponding % of mycolactone activity (in brackets): relative to mycolactone (100%). Type of data set: cell-based. The protocol:
(D) The effect of mycolactone and variants on T cell homing was assessed through their inhibitory effect on the expression of CD62-L receptor by human peripheral blood cells (PBLs). Human PBLs were isolated from total blood by Ficoll density gradient centrifugation. They were incubated in 96-well plates (10^5 cells/well in RPMI 1640 medium supplemented with 10% fetal calf serum and 2 mM L-Glutamine) with mycolactone or variant for 72 h. Cells were then fixed for 20 min in 4% paraformaldehyde (PFA) and stained with an anti-CD62-L antibody coupled with phycoerythrin in a solution of PBS, BSA 0.5%, saponin 0.05%, then analysed by flow cytometry.
In general terms: A flow cytometer gives signals particle by particle.

`CC(=C/C=C/C(C)=C/[C@H](O)[C@@H](O)C[C@H](C)O)C=C(C)/C=C/C(=O)O[C@H]1CCCC(=O)O[C@@H]([C@@H](C)C/C(C)=C/[C@@H](C)[C@H](O)C[C@@H](C)O)C/C=C/C[C@@H]1C` (racemic) [Compound 20a, (6S,7S,9E,12R)-12-[(2S,4E,6R,7R,9R)-7,9-dihydroxy-4,6-dimethyldec-4-en-2-yl]-7-methyl-2-oxo-1-oxacyclododec-9-en-6-yl(2E,4E,6E,8E,10E,12S,13S,15S)-12,13,15-trihydroxy-4,6,10-trimethylhexadeca-2,4,6,8,10-pentaenoate]: the “Cytokine production (M.A.: mean absorbance) (C) % relative to control” value (shortened to “Cytokine production … (C) % relative to control”) in data set [1] (0.4 μM) is 0%; in data set [1] (4 μM) it was 40%; in data set [1] (8 μM) it was 70%. Also, the IC50 came out at 6 µM in data set [1] (Homo sapiens) and 14 µM in data set [2] (Homo sapiens). The “Cytokine production (C): corresponding % of mycolactone activity (in brackets)” value (shortened to “Cytokine production (C): corresponding %”) in data set [1] stood at 1.6%. In the data set on HeLa cell (at 16 μM), the “cytotoxicity compared to mycolactones A/B” value was “equivalent cytotoxicity”. Besides, the “Metabolic activity (MA: mean absorbance) (A) % relative to control” value (“Metabolic activity … (A) % relative to control” below) in data set [2] (0.4 μM) is 0%; in data set [2] (4 μM), 10%; in data set [2] (8 μM), 30%. In addition, in data set [2] (human), the “cytopathic activity, reduction compared to mycolactones A/B” value is on record as 4 fold. Besides, the “Metabolic activity (A): corresponding % of mycolactone activity (in brackets)” value (“Metabolic activity (A): corresponding %” below) in data set [2] is 25%.
For the compound `CC(=C/C=C/C(C)=C/[C@@H](O)[C@H](O)C[C@@H](C)O)C=C(C)/C=C/C(=O)O[C@H]1CCCC(=O)O[C@@H]([C@@H](C)C/C(C)=C/[C@@H](C)[C@H](O)C[C@@H](C)O)C/C=C/C[C@@H]1C` (racemic) [Compound 20c, (6S,7S,9E,12R)-12-[(2 S,4E,6R,7R,9R)-7,9-dihydroxy-4,6-dimethyldec-4-en-2-yl]-7-methyl-2-oxo-1-oxacyclododec-9-en-6-yl(2E,4E,6E,8E,10E,12R,13R,15R)-12,13,15-trihydroxy-4,6,10-trimethylhexadeca-2,4,6,8,10-pentaenoate], the “CD62-L expression (MFI: mean fluorescence intensity) (D) % relative to control” value (“CD62-L expression … (D) % relative to control” for short) in data set [3] (4 μM) is 0%; in data set [3] (8 μM), 10%. Moreover, the IC50 was more than 16 µM in data set [3] (T-cell), 6.5 µM in data set [1] (Homo sapiens) and more than 16 µM in data set [2] (Homo sapiens). In addition, in data set [3], the “CD62-L expression (D): corresponding % of mycolactone activity (in brackets)” value is given as less than 0.2%. For the same compound, the “Cytokine production … (C) % relative to control” value was found to be 18% in data set [1] (0.4 μM), 35% in data set [1] (4 μM) and 65% in data set [1] (8 μM). In data set [1], the “Cytokine production (C): corresponding %” value is reported as 1.5%. The “cytotoxic activity compared to compound 20a” value in the data set on HeLa cell is “significantly reduced”. Further, in data set [2], the “cytopathic activity compared to compound 20a” value is reported as “significantly reduced”. Moreover, the “Metabolic activity … (A) % relative to control” value was 0% in data set [2] (0.4 μM), 20% in data set [2] (4 μM) and 25% in data set [2] (8 μM). Moreover, in data set [2], the “Metabolic activity (A): corresponding %” value is given as less than 20%.
`CC(=C/C=C/C(C)=C/C[C@@H](O)CC(C)O)C=C(C)/C=C/C(=O)O[C@H]1CCCC(=O)O[C@@H]([C@@H](C)C/C(C)=C/[C@@H](C)[C@H](O)C[C@@H](C)O)C/C=C/C[C@@H]1C` (stereo in doubt) [Compound 20d, (6S,7S,9E,12R)-12-[(2S,4E,6R,7R,9R)-7,9-dihydroxy-4,6-dimethyldec-4-en-2-yl]-7-methyl-2-oxo-1-oxacyclododec-9-en-6-yl(2E,4E,6E,8E,10E,13R,15R)-13,15-dihydroxy-4,6,10-trimethylhexadeca-2,4,6,8,10-pentaenoate]: the “CD62-L expression … (D) % relative to control” value in data set [3] (4 μM) and in data set [3] (8 μM) was 0% each time. In addition, the “Cytokine production … (C) % relative to control” value is 12% in data set [1] (0.4 μM), 30% in data set [1] (4 μM) and 55% in data set [1] (8 μM). The results for the IC50 in data set [1] (Homo sapiens) and in data set [2] (Homo sapiens) were 7.3 µM and more than 16 µM, respectively. Moreover, the “Cytokine production (C): corresponding %” value in data set [1] amounted to 1.4%. For the same compound, the “cytotoxic activity compared to compound 20a” value with HeLa cell was “significantly reduced”. In addition, the “cytopathic activity compared to compound 20a” value in data set [2] is “significantly reduced”. In addition, the results for the “Metabolic activity … (A) % relative to control” value in data set [2] (0.4 μM), in data set [2] (4 μM) and in data set [2] (8 μM) were 0%, 20% and 25%, respectively. Further, the “Metabolic activity (A): corresponding %” value in data set [2] is recorded as less than 20%.
“2,2-difluoro-8-(4-{1-[(2S)-2-[(2R,4E,7S,8S)-8-hydroxy-7-methyl-12-oxo-1-oxacyclododec-4-en-2-yl]propyl]-1H-1,2,3-triazol-4-yl}butyl)-4,6,10,12-tetramethyl-1λ^5,3-diaza-2λ^4-boratricyclo[7.3.0.0^3,7]dodeca-1(12),4,6,8,10-pentaen-1-ylium [Compound 29]”: the “CD62-L expression … (D) % relative to control” value in data set [3] (4 μM) and in data set [3] (8 μM) was 100% each time. Moreover, the IC50 turned out to be 2 µM in data set [3], 3 µM in data set [1] and 16 µM in data set [2]. In data set [3], the “CD62-L expression (D): corresponding % of mycolactone activity (in brackets)” value was 1.5%. The “Cytokine production … (C) % relative to control” value in data set [1] (0.4 μM) is 18%; in data set [1] (4 μM), 70%; in data set [1] (8 μM) it was 95%. Also, the “Cytokine production (C): corresponding %” value in data set [1] was found to be 3.3%. The “Metabolic activity … (A) % relative to control” value in data set [2] (0.4 μM) turned out to be 0%; in data set [2] (4 μM), 30%; in data set [2] (8 μM) it was 40%. The “Metabolic activity (A): corresponding %” value in data set [2] was found to be 20%.
For “2,2-difluoro-4,6,10,12-tetramethyl-8-(4-{1-[(2S)-2-[(2R,4E,7S,8S)-7-methyl-12-oxo-8-{[(2E,4E,6E,8E,10E,12S,13S,15S)-12,13,15-trihydroxy-4,6,10-trimethylhexadeca-2,4,6,8,10-pentaenoyl]oxy}-1-oxacyclododec-4-en-2-yl]propyl]-1H-1,2,3-triazol-4-yl}butyl)-1λ^5,3-diaza-2λ^4-boratricyclo[7.3.0.0^3,7]dodeca-1(12),4,6,8,10-pentaen-1-ylium [Compound 28]”, the figures for the “Cytokine production … (C) % relative to control” value in data set [1] (0.4 μM), in data set [1] (4 μM) and in data set [1] (8 μM) were 20%, 50% and 70%, respectively. Moreover, the IC50 in data set [1] was 4 µM; in data set [2], more than 16 µM. For the same compound, in data set [1], the “Cytokine production (C): corresponding %” value came to 2.5%. The “Metabolic activity … (A) % relative to control” value was 0% in data set [2] (0.4 μM), 20% in data set [2] (4 μM) and 35% in data set [2] (8 μM). Also, the “Metabolic activity (A): corresponding %” value in data set [2] was less than 20%.
